Laboratory results from PubChem BioAssay AID434955 (Southern Research Specialized Biocontainment Screening …, 2010).

Tested on: M. tuberculosis H37Rv growth with meropenem, percent inhibition
Assay: beta-lactam sensitization of Mtb H37Rv, H37Rv (AID 434955)

O=C(CN1CCC(O)(c2ccc3c(c2)OCO3)CC1)OC1CCCCC1
IC90: 35.3 µM

Cc1cc2ccccc2n1CCNC(=O)COc1ccccc1
IC90: 42.8 µM

O=C(CN1C(=O)c2cccc([N+](=O)[O-])c2C1=O)N1CCN(c2ccc(F)cc2)CC1
IC90: 74.5 µM

COc1ccc(-c2cc(C(F)F)nc(-n3nc(C)cc3C)n2)cc1
IC90: 54.1 µM

Cc1cc(C)c(-c2c(O)c3ccccc3n(C)c2=O)c(C)c1
IC90: 42.2 µM

COc1ccc(C2(CNC(=O)c3cc([N+](=O)[O-])cc([N+](=O)[O-])c3)CCCC2)cc1OC
IC90: 1.61 µM

CN1c2ccccc2C(=O)NC1c1ccc([N+](=O)[O-])s1 (configuration not stated)
IC90: 33.3 µM

CCOC(=O)c1c(C)n(-c2ccccc2)c2ccc(OCCN(C)C)cc12
IC90: 21.7 µM

CCOC(=O)C1CSC(CC(=O)Nc2ccc(Cl)c(Cl)c2)C(=O)N1 (configuration not stated)
IC90: 35.4 µM

O=c1c2cc(Cl)ccc2[nH]c(=S)n1Cc1cccs1
IC90: 13.2 µM

Cc1ccc(C)c(CSc2nnc(C)c(=O)n2N)c1
IC90: 20.4 µM

Cc1ccc(Nc2nc(N)nc(CC#N)n2)cc1
IC90: 92.7 µM

O=C1COc2ccc(C(=O)/C=C/c3ccccc3)cc2N1
IC90: 12.2 µM

CCNC(=S)N/N=C1\C(=O)c2cccc3cccc1c23
IC90: 7.61 µM

O=C(NCc1nc2ncc(Br)cc2[nH]1)c1ccccc1
IC90: 54.9 µM

O=C(Cn1cnc2sc3c(c2c1=O)CCCC3)NCC(=O)Nc1ccccc1F
IC90: 95.5 µM

COCCNC(=S)N/N=C1\CC(C)CC(C)(C)C1 (configuration not stated)
IC90: 27.5 µM

COCCCn1c(=O)/c(=C\c2ccccc2OC(C)C)s/c1=C(/C#N)C(=O)Nc1ccc(C(=O)O)cc1
IC90: 18.5 µM

Cc1nn(-c2ccccc2)c(N2CCCC2)c1/C=C1\N=C(c2ccc(F)cc2)OC1=O
IC90: 22.9 µM

C[C@H]1C=CC(=O)O[C@H]1c1ccccc1
IC90: 49.5 µM

NNC(=S)NC1CC2CC1C1C=CCC21 (configuration not stated)
IC90: 13.5 µM

CCOC(=O)N1CCN(CC(=O)Nc2nnc(C(F)(F)F)s2)CC1
IC90: 50.1 µM

COc1cc(/C(C)=N\NC(N)=S)cc(OC)c1OC
IC90: 19.6 µM

CC(C)(C)C1=Nn2c(nnc2-c2ccccc2F)SC1
IC90: 78.3 µM

Cc1ccc(C2=NN3C(=O)c4ccccc4C3C2)cc1 (configuration not stated)
IC90: 35.1 µM

CCCOc1ccc(C(=O)N/N=C/c2ccc(-c3ccc(S(=O)(=O)Nc4ncccn4)cc3)o2)cc1
IC90: 26.1 µM

Cc1cc(C(=O)CSc2nnnn2-c2ccccc2)c(C)n1-c1ccc2c(c1)OCO2
IC90: 60.9 µM

COc1cc(C(=O)Oc2cccnc2)cc(OC)c1OC
IC90: 13.6 µM

O=C(Nc1nc2ccccc2n1CCN1CCCC1)C1CCCCC1
IC90: 27.5 µM

COc1ccc(NC(C)C(=O)N/N=C/c2ccc([N+](=O)[O-])s2)cc1 (configuration not stated)
IC90: 4.79 µM

O=C1c2ccccc2N2C(=O)c3ccccc3C2N1O (configuration not stated)
IC90: 56.4 µM

Cc1ccc(C(=O)N/C(=C\c2ccc(-c3ccc(Cl)cc3)o2)C(=O)NCCCN(C)C)cc1
IC90: 23.7 µM

O=C(NCCC1=CCCCC1)c1ccc(Cl)c([N+](=O)[O-])c1
IC90: 30.2 µM

COc1cc(C(=O)N/N=C/c2ccc(OC(=O)c3cccc(C)c3)cc2)ccc1O
IC90: 53.4 µM

CC(=O)Nc1cccc(/C(C)=N/NC(N)=S)c1
IC90: 28.6 µM

O=C(Oc1c(-c2ccccc2)c(=O)n2c3c(cccc13)CC2)c1cccc([N+](=O)[O-])c1
IC90: 62.3 µM

CCOc1ccc2nc(SC3CC(=O)N(c4cccc(OC)c4)C3=O)sc2c1 (configuration not stated)
IC90: 25.7 µM

COc1cccc(/C=N/NC(=O)NC23CC4CC(CC(C4)C2)C3)c1O
IC90: 26.8 µM

COc1ccc(-c2csc(NC(CO)c3nc4ccccc4n3Cc3ccc(C)cc3)n2)cc1 (configuration not stated)
IC90: 26.4 µM

Cc1cc(C)cc(SCc2noc(C(=O)NC(C)C)c2C(=O)O)c1
IC90: 27.3 µM

CC12CCC(C/C1=N\N=C1\NC(=O)/C(=C\c3cccc(Br)c3)S1)C2(C)C (configuration not stated)
IC90: 37.7 µM

COc1ccccc1-c1cc(C(=O)Nc2c(C)n(C)n(-c3ccccc3)c2=O)no1
IC90: 19.5 µM

O=C1OC(c2ccco2)=N/C1=C\c1ccc(-c2cccc(C(F)(F)F)c2)o1
IC90: 53.4 µM

Cc1ccc(S(=O)(=O)Nc2cccc3cccnc23)c([N+](=O)[O-])c1
IC90: 4.7 µM

COc1ccc(/C=C/C(=O)N(C(C)C)C(C)C)cc1Br
IC90: 96.4 µM

Cc1ccccc1OCC(=O)N/N=C/c1cccc(Oc2ccc([N+](=O)[O-])cc2[N+](=O)[O-])c1
IC90: 5.4 µM

CCOC(=O)c1ccc(C(=O)NNC(=O)C2CC=CCC2)cc1 (configuration not stated)
IC90: 40 µM

NNC(=O)c1cccc(O)c1
IC90: 73.9 µM

COc1cc(CNCCO)cc(Br)c1OCc1ccccc1Cl
IC90: 52.7 µM

C=C(C)C1Cc2c(C)nn(-c3cccc4ccccc34)c2C1 (configuration not stated)
IC90: 47.4 µM

O=C(N/N=C/c1c(O)n(Cc2ccc(F)cc2)c(=S)[nH]c1=O)c1ccncc1
IC90: 9.8 µM

COc1ccc(C(=O)NC(=S)Nc2ccc(S(=O)(=O)Nc3cc(C)on3)cc2)cc1OC
IC90: 29 µM

Cc1cccc(OCc2nc(-c3ccccn3)n[nH]2)c1
IC90: 7.37 µM

O=C(/C=C/c1ccccn1)c1cc(Br)ccc1O
IC90: 45.1 µM

COc1cc(C(=O)Nc2cccc(-c3cn4cccnc4n3)c2)cc(OC)c1OC
IC90: 30.2 µM

c1ccc2c(c1)Cn1nc(Cc3nc4c(s3)CCCC4)nc1-2
IC90: 53 µM

Cc1onc(-c2ccccc2)c1C(=O)Nc1ccc(-c2nnc3n2CCCCC3)cc1
IC90: 38.6 µM

CN(C)/N=C/c1ccc(/C=N/NC(N)=S)o1
IC90: 43.3 µM

O=C(Cc1ccc(Cl)cc1Cl)Nc1ccc(OC(F)F)c(Cl)c1
IC90: 13.7 µM

CCc1cc(C(=O)O)c(NC(=O)/C=C/c2ccc(OC)cc2)s1
IC90: 59.7 µM

Cc1c(C(=O)NCCC2=CCCCC2)sc2ncnc(N3CCCCC3C)c12 (configuration not stated)
IC90: 52 µM

C/C(=N\OCC(=O)Nc1nc2ccccc2s1)c1ccccc1
IC90: 35.6 µM

Cc1cc(C)n(-c2nc3ccccc3c(=O)n2OCC(=O)N(C)C)n1
IC90: 23.3 µM

CCCn1nnnc1NC(=O)COc1ccc(Cl)cc1C
IC90: 42.9 µM

CCN(CC)C(=O)C1CCCN(c2ccc([N+](=O)[O-])cc2/C=N/NC(=O)c2cccc(O)c2)C1 (configuration not stated)
IC90: 55.3 µM

O=C(CSc1nnc(-c2ccncc2)o1)c1cccc([N+](=O)[O-])c1
IC90: 45.4 µM

C/C(=N\NC(=S)Nc1ccccc1C)c1ccc(O)cc1
IC90: 7.97 µM

Cc1nnc(SCC2=C(C(=O)O)N3C(=O)C(NC(=O)COc4ccc(F)cc4)C3SC2)s1 (configuration not stated)
IC90: 9.33 µM

CC(NC(=O)CSc1nc2ccccc2c(=O)[nH]1)c1ccccc1 (configuration not stated)
IC90: 60.9 µM

Cc1ccc(SCCNC(=O)c2ccc(C)c([N+](=O)[O-])c2)cc1
IC90: 54 µM

CC(O)/C=C/c1ccc2ccccc2n1 (configuration not stated)
IC90: 57.5 µM

COc1ccc(OC)c(NC(=O)CS(=O)(=O)c2ccccc2)c1
IC90: 14.3 µM

O=[N+]([O-])c1cc(Cl)cc(/C=N/NC(=S)Nc2cc(S(=O)(=O)N3CCOCC3)ccc2Cl)c1O
IC90: 29.3 µM

O=C(COC(=O)c1ccc([N+](=O)[O-])s1)NCc1ccccc1
IC90: 39.4 µM

CCCCN=C1CC(C)(C)CC(=O)/C1=C(/O)CCC
IC90: 28.7 µM

C=C1C(=O)O[C@@H]2[C@H]1[C@@H](OC(=O)/C(C)=C/C)C/C(C)=C\C(=O)/C=C(\C)[C@@H]2O
IC90: 25.2 µM

O=c1c2c3n(c(=S)nc2[nH]n1-c1ccccc1)CCCCC3
IC90: 13.3 µM

O=C(NN1C(=O)C2C(C1=O)C1C=CC2C12CC2)c1ccncc1 (configuration not stated)
IC90: 13.9 µM

CCCCCn1c(=O)c(C(=O)Nc2cnccn2)c(O)c2ccccc21
IC90: 13.8 µM

CC1CCN(CC(CS(=O)(=O)c2ccc([N+](=O)[O-])cc2)N2CCC(C)CC2)CC1 (configuration not stated)
IC90: 31.5 µM

Cc1[nH]n(-c2ccccc2)c(=O)c1/C=N/NC(=O)c1cccc([N+](=O)[O-])c1
IC90: 70.7 µM

CCCCNC(=O)c1onc(CSc2ccc(F)c(F)c2)c1C(=O)O
IC90: 56.8 µM
